Assay results published in patent US20160303127A1, “COMBINATION THERAPY WITH C-MET AND EGFR ANTAGONISTS” (Genentech, Inc., priority 2008, published 2016).

Columns and labels:
[1] = tested on: EBC-1 shMet-4.5 tumors; test: Combination efficacy of erlotinib with c-met knockdown (Dox) in the EBC-1 shMet-4.5 NSCLC xenograft model; assay type: in vivo, nude mice (nu/nu); conditions: EBC-1 shMet-4.5 xenograft
Experimental: Test material. Erlotinib (Tarceva™) was provided by OSI Pharmaceuticals to the Formulations Department at Genentech and was weighed out along with a sufficient amount of vehicle (methylcellulose tween (MCT)). Materials were stored in a refrigerator set to maintain a temperature range of 4° C. to 8° C. Anti-c-met monovalent monoclonal antibody MetMAb (rhuOA5D5v2) (WO2007/063816) was provided by the Antibody Engineering Department at Genentech, Inc., in a clear liquid form. The EBC-1 cell line was obtained from Japanese Collection of Research Bioresources (JCRB). Species. Forty nude mice (nu/nu) were obtained from Charles River Laboratories (CRL) and were acclimatized for at least one week prior to being put on study. Animals were housed in ventilated caging systems in rooms with filters supplying High-Efficiency Particulate Air (HEPA). Only animals that appeared to be healthy and were free of obvious abnormalities were used for the study. Study design. EBC-1 cells were cultured in growth media that consisted of RPMI 1640 media (Invitrogen), 2 mM L-glutamine, and 10% fetal bovine serum. To prepare cells for inoculation into mice, cells were trypsinized, washed with ten milliliters of sterile 1× phosphate buffered saline (PBS). A subset of cells was counted by trypan blue exclusion and the remainder of cells was resuspended in 100 μl of sterile 1× PBS to a concentration of 5×10^7 cells per milliliter. Mice were inoculated subcutaneously in the right sub-scapular region with 5×10^6 EBC-1 cells. […] Mice in Group 1 (control group) were treated with 100 μL vehicle control, methylcellulose tween (MCT), every day (QD) via oral gavage (PO) and were switched to drinking water containing 5% sucrose. […] Dox and sucrose water was changed every 2-3 days. Erlotinib and MCT were dosed for 14 days, stopped for 6 days and then resumed for the remainder of the study (20 days). […] All studies and handling of mice complied with the Institutional Animal Care and Use Committee (IACUC) guidelines. [table] Tumor and Body Weight Measurement. […] Fowler Company, Inc.; Newton, Mass.). The following formula was used with Excel v11.2 (Microsoft Corporation; Redmond, Wash.) to calculate tumor volume: […] Efficacy Data Analysis. Tumor inhibition was plotted using KaleidaGraph 3.6 (Synergy Software; Reading, Pa.). Percent growth inhibition (% Inh) at Day 17 was calculated as follows: […] Tumor incidence (TI) was determined by the number of measurable tumors in each group at Day 17. […] Mean tumor volume and standard error of the mean (SEM) were calculated using JMP software, version 5.1.2 (SAS Institute; Cary, N.C.). Data analysis and generation of p-values using either Student's t-test or the Dunnett's t-test was also done using JMP software, version 5.1.2. […] Mice were then grouped into four treatment arms; […] Vehicles, Group 2: Doxycycline (Dox), Group 3: erlotinib (100 mg/kg), and Group 4: erlotinib+Dox (See Table 6).

[2] = molecular target: c-met (as expressed in NCI-H596 cells) (human) (UniProt P08581); test: cell-based or functional assay
[3] = 10 mice per group, any day during the study

C[C@H]1c2cccc(O)c2C(=O)C2=C(O)[C@]3(O)C(=O)C(C(N)=O)=C(O)[C@@H](N(C)C)[C@@H]3[C@@H](O)[C@@H]21 [Dox, doxycycline]
number of complete responses (CR; tumor regression of 100%) [1, 3]: 1
number of partial responses (PR; tumor regression >50% but <100% of starting tumor volume) [1, 3]: 2
reduction in tumor growth compared to the vehicle control (tumor inhibition) ([1]; nude mice, day 19, erlotinib 100 mg/kg PO QD, Dox in drinking water): 38%

Anti-c-met monovalent monoclonal antibody MetMAb (rhuOA5D5v2)
pMet/total Met in NCI-H596 xenograft tumors, percent of vehicle control (immunoprecipitation and immunoblot, Li-Cor quantification) (% of vehicle control) [2]: 12
